The values below come from patent US20250326748A1, “COMPOUNDS AND METHODS FOR MODULATING SPLICING” (REMIX THERAPEUTICS INC., priority 2022, published 2025).

Molecules are shown by their SMILES. Counter-ions that a name gives are not always drawn.

This assay concerns HiBiT-tagged MYB protein. Nature of the assay: HiBiT protein abundance assay, MYB (K562 HiBiT knock-in). Conditions: HiBiT knock-in cells, 24 hours. In kind it is cell-based, human. How it is done: Compounds described herein were used to screen for effects on quantitative protein abundance using a HiBit assay system (Promega). Quantitative protein abundance was determined by measuring the protein levels of HiBit-tagged protein targets expressed in cell culture via luminescence using the Nano-Glo HiBiT Lytic Detection System, which uses a split complementation assay format to reconstitute NanoBiT enzyme to generate a luminescent signal. A protein abundance assay was developed such that endogenous protein targets could be modified with the HiBiT peptide tag and their abundance could be assessed after compound treatment. Briefly, K562 cell lines containing a HiBiT-modification were treated with various compounds described herein (e.g., compounds of Formulas (I), or (II)). After treatment for 24 hours, the protein abundance of a specific target was determined by measuring luminescence.
• Promega Nano-Glo HiBiT Lytic Detection System (cat #N3030) • Corning 384-well TC-treated microplates (cat #3570)
Cells were maintained in IMDM with 10% FBS. Before the assay, cells were diluted with […] growth media (IMDM+1% FBS media) and were seeded in a 384-well plate at a density of 10000 cells/well (for each cell line listed in Table 6). Each compound was prepared as a 10-point 3-old serial dilution in DMSO with the top dose at a final concentration of 10 μM in the well. Unmodified K562 cells were added at the previously specified density with DMSO to serve as an assay baseline and positive control (PC) and DMSO only with the respective modified cell lines was added to the negative control (NC) columns. Final DMSO concentration was kept at or below 0.25%. Treated cell plates were placed in an incubator at 37° C. with 5% CO2 for 24 hours. After 24 hours, 25 μL of Complete HiBit Lytic reagent was added to each well at room temperature (e.g. one plate requiring 10 ml Lytic Buffer, 100 μL LgBiT Protein, 200 μL Lytic Substrate), shaken for 5 minutes at 600 RPM, then left to sit for 10 minutes for signal to stabilize before reading on a Spark Cyto plate reader (Tecan) with a 500 ms measurement time.
To determine compound effects on protein abundance of each target in Table 6, the percent response for each respective cell line was calculated at each compound concentration as follows:
For the normalized response at each concentration, a four-parameter logistical regression was fit to the data and the response was interpolated at the 50% value to determine a concentration for protein abundance at 50% (IC50) the untreated control.
For orientation: With HiBiT, luminescence reflects the tagged protein that the partner subunit can reach.

Turning to `CN[C@H]1CN(c2cnc3nc(-c4cc5cn(C)nc5c(C)c4O)ccc3c2)C[C@@H]1C` [Compound 127, 2,7-dimethyl-5-{6-[(3S,4R)-3-methyl-4-(methylamino)384pyrrolidine-1-yl]-1,8-naphthyridin-2-yl}indazol-6-ol], the IC50 – broadly, the concentration that inhibits the measured activity by half – was under 100 nM.

On to `CN[C@@H]1CN(c2cnc3nc(-c4cc5cn(C)nc5c(C)c4O)ccc3c2)C[C@@H]1C` [Compound 128], for which the IC50 is under 100 nM. Next, `CN[C@H]1CN(c2cnc3nc(-c4cc5cn(C)nc5c(C)c4O)ccc3c2)C[C@H]1F` [Compound 129, 5-{6-[(3R,4S)-3-fluoro-4-(methylamino)pyrrolidin-1-yl]-1,8-naphthyridin-2-yl}-2,7-dimethylindazol-6-ol]: 100 to 1000 nM. To `CN[C@@H]1CN(c2cnc3nc(-c4cc5cn(C)nc5c(C)c4O)ccc3c2)C[C@@H]1F` [Compound 132, 5-{6-[(3S,4R)-3-fluoro-4-(methylamino)pyrrolidin-1-yl]-1,8-naphthyridin-2-yl}-2,7-dimethylindazol-6-ol] belongs under 100 nM. To `Cn1cc2cc(-c3cnc4nc(N5CCC(NC(C)(C)C)C5)ccc4c3)c(O)cc2n1` (stereo not drawn) [Compound 133, 5-{7-[3-(tert-butylamino)pyrrolidin-1-yl]-1,8-naphthyridin-3-yl}-2-methylindazol-6-ol] belongs 1000 to 10000 nM; to `Cn1cc2cc(-c3ccc4cc(N5CCC(NC(C)(C)C)C5)cnc4n3)c(O)cc2n1` (stereo not drawn) [Compound 134, 5-{6-[3-(tert-butylamino)pyrrolidin-1-yl]-1,8-naphthyridin-2-yl}-2-methylindazol-6-ol hydrochloride], 100 to 1000 nM; to `Cn1cc2cc(-c3ccc4cc(N5CC[C@@H](NCC6CC6)C5)cnc4n3)c(O)c(F)c2n1` [Compound 135, 5-{6-[(3R)-3-[(cyclopropylmethyl)amino]330pyrrolidine-1-yl]-1,8-naphthyridin-2-yl}-7-fluoro-2-methylindazol-6-ol], under 100 nM. `Cn1cc2cc(-c3ccc4cc(N5CC[C@H](NCC6CC6)C5)cnc4n3)c(O)c(F)c2n1` [Compound 136, 5-{6-[(3S)-3-[(cyclopropylmethyl)amino]326pyrrolidine-1-yl]-1,8-naphthyridin-2-yl}-7-fluoro-2-methylindazol-6-ol] yielded an IC50 of under 100 nM. In turn, `Cc1c(O)c(-c2ccc3cc(N4CCNCC4)cnc3n2)cc2cn(C)nc12` [Compound 137, 2,7-dimethyl-5-[6-(piperazin-1-yl)-1,8-naphthyridin-2-yl]indazol-6-ol] gave an IC50 of under 100 nM.

Regarding `Cc1c(O)c(-c2ccc3cc(N4CCC(N(C)C)CC4)cnc3n2)cc2cn(C)nc12` [Compound 138, 5-{6-[4-(dimethylamino)piperidin-1-yl]-1,8-naphthyridin-2-yl}-2,7-dimethylindazol-6-ol], the IC50 is under 100 nM.

Compound `CNC1CCN(c2cnc3nc(-c4cc5cn(C)nc5c(C)c4O)cc(Cl)c3c2)C1` (stereo not drawn) [Compound 142, 5-{4-chloro-6-[3-(methylamino)351pyrrolidine-1-yl]-1,8-naphthyridin-2-yl}-2,7-dimethylindazol-6-ol] returned an IC50 of under 100 nM. To `Cc1c(O)c(-c2cc(Cl)c3cc(N4CCC(N(C)C)C4)cnc3n2)cc2cn(C)nc12` (stereo not drawn) [Compound 143, 5-{4-chloro-6-[3-(dimethylamino)357pyrrolidine-1-yl]-1,8-naphthyridin-2-yl}-2,7-dimethylindazol-6-ol] belongs under 100 nM. `Cc1c(O)c(-c2cc(C3CC3)c3cc(N4CCNCC4)cnc3n2)cc2cn(C)nc12` [Compound 144, 5-(4-cyclopropyl-6-(piperazin-1-yl)-1,8-naphthyridin-2-yl)-2,7-dimethyl-2H-indazol-6-ol bis(2,2,2-trifluoroacetate)]: the IC50 was under 100 nM.

`Cc1c(O)c(-c2cc(Cl)c3cc(NC4CCNC4)cnc3n2)cc2cn(C)nc12` (stereo not drawn) [Compound 146, 5-[4-chloro-6-(359pyrrolidine-3-ylamino)-1,8-naphthyridin-2-yl]-2,7-dimethylindazol-6-ol]: the IC50 was under 100 nM. Next, `Cc1c(O)c(-c2cc(Cl)c3cc(N4CCNC(C)C4)cnc3n2)cc2cn(C)nc12` (stereo not drawn) [Compound 147]: 100 to 1000 nM; `Cc1c(O)c(-c2cc(Cl)c3cc(N4C[C@@H](C)N[C@@H](C)C4)cnc3n2)cc2cn(C)nc12` [Compound 149]: under 100 nM. Next, `CNC(=O)c1cc(-c2cc3cn(C)nc3c(C)c2O)nc2ncc(N3CCNCC3)cc12` [Compound 150, 2-(6-hydroxy-2,7-dimethylindazol-5-yl)-N-methyl-6-(piperazin-1-yl)-1,8-naphthyridine-4-carboxamide]: over 10000 nM; `Cc1cc(-c2cc3cn(C)nc3c(C)c2O)nc2ncc(N3CCNCC3)cc12` [Compound 151, 2,7-dimethyl-5-[4-methyl-6-(piperazin-1-yl)-1,8-naphthyridin-2-yl]indazol-6-ol]: under 100 nM. As to `Cc1cn2cc(-c3cc(Cl)c4cc(N5CCNCC5)cnc4n3)cc(F)c2n1` [Compound 153, 4-chloro-2-{8-fluoro-2-methylimidazo[1,2-a]pyridin-6-yl}-6-(piperazin-1-yl)-1,8-naphthyridine], the IC50 was in the range of 100 to 1000 nM. On to `CN[C@H]1CCN(c2cnc3nc(-c4cc5cn(C)nc5c(F)c4O)cc(Cl)c3c2)C1` [Compound 272], for which the IC50 is under 100 nM. To `Cn1cc2cc(-c3cc(Cl)c4cc(N5CCNC6(CC6)C5)cnc4n3)c(O)c(F)c2n1` [Compound 274] belongs under 100 nM. Next, `CN(c1cnc2nc(-c3cc4cn(C)nc4c(F)c3O)cc(Cl)c2c1)[C@H]1CCNC1` [Compound 275]: under 100 nM. The compound `CN(c1cnc2nc(-c3cc4cn(C)nc4c(F)c3O)cc(Cl)c2c1)[C@@H]1CCNC1` [Compound 276] yielded an IC50 of under 100 nM. `Cc1c(O)c(-c2ccc3c(Cl)c(N4CCNCC4)cnc3n2)cc2cn(C)nc12` [Compound 278, 5-[5-chloro-6-(piperazin-1-yl)-1,8-naphthyridin-2-yl]-2,7-dimethylindazol-6-ol] registered a 50% inhibitory concentration (IC50) of under 100 nM. Next, `C[C@@H]1CN(c2cnc3nc(-c4cc5cn(C)nc5c(F)c4O)cc(Cl)c3c2)C[C@H](C)N1` [Compound 279]: under 100 nM. Next, `C[C@H]1CN(c2cnc3nc(-c4cc5cn(C)nc5c(F)c4O)cc(Cl)c3c2)C[C@H](C)N1` [Compound 280]: under 100 nM; `C[C@@H]1CN(c2cnc3nc(-c4cc5cn(C)nc5c(F)c4O)cc(Cl)c3c2)C[C@@H](C)N1` [Compound 281]: under 100 nM. Next, `CN(c1cnc2nc(-c3cc4cn(C)nc4c(F)c3O)ccc2c1)C1CCNCC1` [Compound 284]: 100 to 1000 nM; `Cn1cc2cc(-c3ccc4cc(NC5CCNCC5)cnc4n3)c(O)c(F)c2n1` [Compound 285]: 100 to 1000 nM.

The compound `CN[C@@H]1CCN(c2cnc3nc(-c4cc5cn(C)nc5c(C)c4O)cc(Cl)c3c2)C1` [Compound 286, 5-{4-chloro-6-[(3R)-3-(methylamino)pyrrolidin-1-yl]-1,8-naphthyridin-2-yl}-2,7-dimethylindazol-6-ol hydrochloride] came in with a half-inhibitory concentration (IC50) of under 100 nM.

For `CN[C@H]1CCN(c2cnc3nc(-c4cc5cn(C)nc5c(C)c4O)cc(Cl)c3c2)C1.Cl` [Compound 287], the concentration for half-maximal inhibition (IC50) was under 100 nM. As to `C[C@H]1CN(c2cnc3nc(-c4cc(F)c5nn(C)cc5c4)cc(Cl)c3c2)C[C@@H](C2CC2)N1` [Compound 288], the IC50 lay within 100 to 1000 nM. As for `Cc1c(O)c(-c2cc(Cl)c3cc(N(C)[C@@H]4CCNC4)cnc3n2)cc2cn(C)nc12.Cl` [Compound 293], the IC50 was in the range of 100 to 1000 nM. `Cc1c(O)c(-c2cc(Cl)c3cc(N(C)[C@H]4CCNC4)cnc3n2)cc2cn(C)nc12` [Compound 294] showed an IC50 of 100 to 1000 nM. Next, `C[C@@H]1CN(c2cnc3nc(-c4cc(F)c5nn(C)cc5c4)cc(Cl)c3c2)CCN1` [Compound 295, 4-chloro-2-(7-fluoro-2-methylindazol-5-yl)-6-[(3R)-3-methylpiperazin-1-yl]-1,8-naphthyridine]: 100 to 1000 nM; `C[C@H]1CN(c2cnc3nc(-c4cc(F)c5nn(C)cc5c4)cc(Cl)c3c2)CCN1` [Compound 296]: under 100 nM; `Cc1cn2cc(-c3cc(Cl)c4cc(N5C[C@@H](C)N[C@@H](C)C5)cnc4n3)cc(F)c2n1` [Compound 297]: 100 to 1000 nM. To `Cc1cn2cc(-c3cc(Cl)c4cc(N5C[C@H](C)N[C@@H](C)C5)cnc4n3)cc(F)c2n1` [Compound 298] belongs under 100 nM; to `Cc1c(O)c(-c2ccc3c(C(F)(F)F)c(N4CCNCC4)cnc3n2)cc2cn(C)nc12` [Compound 302, 2,7-dimethyl-5-[6-(piperazin-1-yl)-5-(trifluoromethyl)-1,8-naphthyridin-2-yl]indazol-6-ol], 100 to 1000 nM.
